Measurements published in publication PMC4914250, “Cancer therapeutic approach based on conformational stabilization of mutant p53 protein by small peptides” (Oncotarget, 2016).

How the values were obtained:
[1] = test system: mutp53 in SK3 cell extract; experiment: ELISA of mutp53 conformation, SK3; format: biochemical, human; details: score 0-6 compared to positive control
Text: (§1) A total of close to 350 peptides, deduced from the phage sequences, were synthesized and subjected to several alternative complementary methods of semi high-throughput functional screening; we refer to these peptides as pCAPs (p53 conformation activating peptides). First, we used cell-free ELISA assays to evaluate the effect of individual peptides on mutp53 conformation and DNA binding in vitro. For conformation analysis (Figure 2A), microtiter plates were coated with PAb240, PAb1620 or PAb421 as control, then the effect of each peptide on reactivity of mutp53 with these antibodies was examined; WTp53 served as a positive control for PAb1620 reactivity.
(§2) 96-well plates were coated using 3 different anti p53 monoclonal antibodies, PAb421, PAb240 and PAb1620. Wells were incubated overnight (ON) with 100μl Ab (5μg/ml) in room temp (RT). The liquid was discarded, and the wells were washed 3 times with PBS, 200 μl. Next, blocking with 5% BSA in PBS for 2 hours (RT) was performed, followed by 3 washes in PBS. Samples of mutant and WT p53 proteins (100 μl, 10 μg/ml), together with control peptides or with test peptides 1-326 (5μg /ml), were incubated for 1.5 hours, and then added to the wells for1 hour at RT. 4 washes with PBST were performed. Next, HRP conjugated αp53 antibody (10μg/ml HAF1355 (R&D)) were added to the wells and incubated at RT for 1 hour. Plates were washed 3 times in PBST and TMB substrate solution (50μl each well, Thermo, (Cat. No. ES001-1L-K)) was added and incubated at 37°C for 20 min. The reaction was stopped with 2M Sulfuric acid (50μl). The absorbance was measured at 450 nm with a spectrophotometer. Protein concentration was determined by dividing the absorb an each sample to by the absorbance of PAb421 samples.

[2] = test system: mutp53 in BT549 cell extract; experiment: ELISA of mutp53 conformation, BT549; format: biochemical, human; details: score 0-6 compared to positive control
Text: as §1, §2

HOP62 = experiment: Crystal violet viability assay, HOP62; format: cell-based, human; details: score 0-6 compared to positive control, 48 h
Text: (§3) We also performed a similar analysis on ES2 ovarian cancer cells, which express endogenous mp53^S241F, compared to ES2 cells in which p53 was stably knocked out using CRISPR/Cas9 (ES2 p53KO Figure S1F), to control for specificity for mutp53 (Figure 2D). In ES2 cells, too, some of the peptides caused a significant reduction in cell numbers, more prominent in the mutp53 expressing cells than in their p53KO counterparts. […] Overall, we performed this analysis on several different mutp53-expressing human cancer cell lines, and the results are summarized in Table S3. Based on this comprehensive picture, we reduced the number of most promising candidate lead peptides to 30. These peptides were then synthesized with an 8 arginine C-terminal tail for enhanced delivery across cell membranes (pCAPs 130-160); for clarity, peptides are referred to by their original number, with an R for poly arginine (see Table S3).
(§4) Cells were cultured in 96 wells plates with 2500-4000 cells/well. Serial dilutions of different peptides were added and the plates incubated for additional 48 h at 37°C. Then medium was removed and cell viability was determined by staining the cells with crystal violet (0.05%) in methanol/PBS (1:5, v/v), for 10 min, followed by 3 washes with PBS. 10% acetic acid was added to each well for 10 min. OD was determined at 595 nm.

mutp53 = experiment: Summary score of peptide functional screens; details: overall score over conformation, DNA binding, viability and PCR screens
SK3 = experiment: Crystal violet viability assay, SK3; format: cell-based, human; details: score 0-6 compared to positive control, 48 h
Text: as §3, §4

[3] = test system: H1299 cells expressing mutp53^R175H; experiment: Crystal violet viability assay, H1299; format: cell-based; details: score 0-6 compared to positive control, 48 h
Protocol: Cell extracts were added to ELISA plates coated with the indicated antibodies to allow mutp53 to react with the peptides and antibodies. αp53-HRP Ab was used for assessment of p53 levels. Numbers represent ratio of absorbance between the PAb1620 and PAb240 samples. All reads were normalized to the control PAb241 reading of each extract. MCF7 (WTp53) and H1299-mutp53^A135V (tsp53) cells were used as positive controls for the WTp53 conformation (1620/240 ratio equals or exceeds 5:1). […] 96 well plates were coated with anti-p53 antibody, cell extracts containing p53 were reacted with oligonucleotides that contain a p53RE consensus binding site, labeled with biotin, in the presence or absence (NT) of test peptides. Streptavidin-HRP is used to quantify the amount of oligos in the well. TMB assay was performed to determine bound mutp53 levels (450nm). MCF7 and the H1299-mutp53^A135V(TS) cells serve as positive controls for WTp53. C.and D. - Bar graphs illustrating the effect of various selected peptides on mut-p53 dependent expression on cell viability. […] D, ES2 cells expressing endogenous mutp53 (blue bars) and ES2 cells knocked out for p53 by CRISPR construct (light blue bars). Cell lines were treated with selected peptides, Cis-platinum was used as positive control for cell death. 48 hours after treatment, cells were washed with PBS, and the remaining attached cells were stained with Crystal violet and washed 4 times with PBS. Stained cells were dissolved in 10% acetic acid and plates were taken for optical density measurement at 595nM.
This simple assay measures the total number of cells, thus reflecting the combination of both cell death and growth arrest effects. […] After 48 hours of treatment cells were stained with crystal violet and OD at 595nm was determined.
Values on the Y-axis reflect the number of cells in the treated wells, normalized to the non-treated samples (NT; red bars).

ES2 ovarian cancer cells = experiment: Crystal violet viability assay, ES2; format: cell-based, human; details: score 0-6 compared to positive control, 48 h
Protocol: (§5) Cell extracts were added to ELISA plates coated with the indicated antibodies to allow mutp53 to react with the peptides and antibodies. αp53-HRP Ab was used for assessment of p53 levels. Numbers represent ratio of absorbance between the PAb1620 and PAb240 samples. All reads were normalized to the control […] reading of each extract. MCF7 (WTp53) and H1299-mutp53^A135V (tsp53) cells were used as positive controls for the WTp53 conformation (1620/240 ratio equals or exceeds 5:1). […] 96 well plates were coated with anti-p53 antibody, cell extracts containing p53 were reacted with oligonucleotides that contain a p53RE consensus binding site, labeled with biotin, in the presence or absence (NT) of test peptides. Streptavidin-HRP is used to quantify the amount of oligos in the well. TMB assay was performed to determine bound mutp53 levels (450nm). MCF7 and the H1299-mutp53^A135V(TS) cells serve as positive controls for WTp53. C.and D. - Bar graphs illustrating the effect of various selected peptides on mut-p53 dependent expression on cell viability. […] D, ES2 cells expressing endogenous mutp53 (blue bars) and ES2 cells knocked out for p53 by CRISPR construct (light blue bars). Cell lines were treated with selected peptides, Cis-platinum was used as positive control for cell death. 48 hours after treatment, cells were washed with PBS, and the remaining attached cells were stained with Crystal violet and washed 4 times with PBS. Stained cells were dissolved in 10% acetic acid and plates were taken for optical density measurement at […]. TEXT PRINTED IN THE PICTURE: (A) pCAP1: 0.87 | (A) pCAP2: 0.53 | (A) pCAP3: 0.59 | (A) pCAP4: 0.59 | (A) pCAP5: 0.60 | (A) pCAP6: 0.75 | (A) pCAP23: 1.06 | (A) pCAP24: 1.44 | (A) pCAP36: 1.25 | (A) pCAP47: 1.54 | (A) pCAP54: 1.54 | (A) pCAP60: 2.73 | (A) pCAP68: 2.22 | (A) pCAP83: 1.56 | (A) pCAP97: 2.45 DOUBTS OF THE COPYIST ABOUT THIS PICTURE: Panel A: the numbers over the bars are printed very small, rotated and blurred, so 3, 5, 6, 8 and 9 cannot be told apart with certainty. All values are best readings: pCAP1 0.87, pCAP2 0.53, pCAP3 0.59, pCAP4 0.59, pCAP5 0.60, pCAP6 0.75, pCAP23 1.06, pCAP24 1.44, pCAP36 1.25, pCAP47 1.54, pCAP54 1.54, pCAP60 2.73, pCAP68 2.22, pCAP83 1.56, pCAP97 2.45 / Panel A: the picture prints no measure with the numbers over the bars, so they are given as bare numbers / Panel A: numbers are also printed over the controls, which are not substances and are left out of lines. Best readings: NT 0.60, 60° 30'' 0.48, 60° 1' 0.37, 60° 3' 0.13, 60° 10' 0.05, MCF7 3.32, H1299TS 3.25
as §3, §4

[4] = test system: mutp53 in SK3 cell extract; experiment: ELISA of mutp53 DNA binding (p53RE oligonucleotide), SK3; format: biochemical, human; details: score 0-6 compared to positive control
Protocol: (§6) Next, we assessed the ability of our selected peptides to restore sequence-specific DNA binding to mutp53. To that end we employed an ELISA kit (R&D) in which cell extracts containing p53 are reacted with a biotinylated p53RE oligonucleotide and then incubated in wells coated with anti-p53 antibody, which is expected to trap the p53 protein and its associated p53RE DNA. The amount of p53RE retained in each well via p53 binding is quantified by incubation with streptavidin-HRP. […] Again, extracts of MCF7 and H1299-tsp53^A135V cells served as positive controls for WTp53 DNA binding activity. […] Importantly, there was substantial overlap between the peptides that stabilized the WT conformation (Figure 2A) and those that increased specific DNA binding (Figure 2B), further reinforcing the conclusion that those peptides stabilize mutp53 in a functional state. This was not seen with the randomly selected peptides 1-6 (black bars).
For these experiments, a commercial p53/DNA binding kit of “R&D” (Cat-DYC1355-5 Lot-1273366FA) was used, in accordance with manufacturer guide lines. Briefly, 96 well plates we coated with anti-p53 antibody overnight. Cell extracts containing p53 are reacted with an oligonucleotide that contains a p53 consensus binding site (provided in the kit), labeled with Biotin, in the presence or absence (NT) of test peptides. WT p53 is expected to bind this DNA binding site as well as to the antibody coating the test wells of the plate. Excess p53 and oligos were washed away and streptavidin-HRP was used to quantify the amount of oligos in the well, which is proportional to the DNA bound by p53. TMB assay was performed to determine HRP (ES001-1L-K) levels (450nm).

mutp53^R175H [5] = experiment: ELISA of mutp53 DNA binding (p53RE oligonucleotide), H1299-p53^R175H cell extract; format: biochemical, human; details: score 0-6 compared to positive control; mutp53 DNA binding
Protocol: as §5, §6
For these experiments, a commercial p53/DNA binding kit of “R&D” (Cat-DYC1355-5 Lot-1273366FA) was used, in accordance with manufacturer guide lines. Briefly, 96 well plates we coated with anti-p53 antibody overnight. Cell extracts containing p53 are reacted with an oligonucleotide that contains a p53 consensus binding site (provided in the kit), labeled with Biotin, in the presence or absence (NT) of test peptides. […]

mutp53^R175H [6] = experiment: ELISA of mutp53 conformation (PAb1620/PAb240), H1299-p53^R175H cell extract; format: biochemical, human; details: score 0-6 compared to positive control; mutp53 conformation
Text: as §1, §5
Extracts were prepared at a concentration of 750ng/μl and then reacted for 2 hours with different peptides. Plates coated with the different antibodies were then washed and blocked, and extracts pre-incubated either with or without peptides were added for two additional hours. After removal of extracts, plates were washed and incubated with HRP-conjugated anti-p53 antibody. Finally, HRP activity was quantified by optical density at 450nm. MCF7 cells (expressing WTp53) and H1299-tsp53^A135V cells, stably expressing a temperature sensitive p53 mutant that has mutant conformation at 37°C but WT conformation at 32°C [31], were used as positive controls for the WTp53 conformation (1620/240 ratio 5:1). […]

EP156 = experiment: Crystal violet viability assay, EP156; format: cell-based; details: score 0-6 compared to positive control, 48 h
Text: as §3, §4

WI38 = experiment: Crystal violet viability assay, WI38; format: cell-based; details: score 0-6 compared to positive control, 48 h
Protocol: as §4

Substance | Conform BT549 [2] | Viability HOP62 (HOP62) | SCORE (mutp53) | Viability H1299 [3] | DNA H1299 (mutp53^R175H [5]) | also measured
DEDAKFRIRILMRR [pCAP-202, peptide with similarity to APAF1] | 3 | 2 | 13 | 3 |  | Conform SK3 [1]: 2; Viability SK3 (SK3): 3
EHDFEVRGDVVNGRNHQPK [pCAP-4, randomly selected peptide used as inert comparison] |  |  | 2 |  |  | Viability ES2 (ES2 ovarian cancer cells): 2
FPGHTIH [pCAP-100] | 1 |  | 19 | 3 | 3 | Conform SK3 [1]: 3; DNA SK3 [4]: 3
FWTQSIKERKMLNEHDFER [pCAP-3, randomly selected peptide used as inert comparison] |  | 2 | 4 | 1 |  | 
LEVIYMI [pCAP-5, randomly selected peptide used as inert comparison] |  |  | 2 |  |  | 
LGIDEDEETETAPE [pCAP-6, randomly selected peptide used as inert comparison] |  | 2 | 4 |  |  | 
LPNPPERHH [pCAP-16] |  | 3 | 22 | 3 | 3 | DNA SK3 [4]: 3; Conform H1299 (mutp53^R175H [6]): 2; Viability EP156 (EP156): 4
SPLQTPAAPGAAAGPALSPV [pCAP-7, synthesized peptide of the functional screen] |  |  | 3 |  | 1 | Viability WI38 (WI38): 2
VWVHDSCHANLQNYRNYLP [pCAP-2, randomly selected peptide used as inert comparison] |  |  | 2 |  |  | 
myr-HSSHHHPTVQHRR [pCAP-257, myristoylated peptide, similarity to SIN3A] | 3 | 3 | 16 |  | 3 | Viability SK3 (SK3): 3; Viability EP156 (EP156): 4
